According to US20060293343A1, “Pyrimidine derivatives” (Asahi Kasei Pharma Corporation, priority 2005, published 2006):

What was measured:
[1] = test system: TNF-α production in LPS-stimulated mouse mononuclear cells; test: Inhibitory action of TNF-α production using mouse mononuclear cells (in vitro); type: cell-based; settings: mouse mononuclear cells from peripheral blood of C3H/He mouse; LPS 5 μg/mL, 21 hours; TNF-α ELISA; read-out: IC50 (nM), suppression action of TNF-α production
Protocol: Mouse mononuclear cells were isolated from the peripheral blood of C3H/He mouse (manufactured by Japan SLC Co., male), and were suspended in a culture medium (trade name RPMI 1640 manufactured by Gibco Co.) containing 10% bovine serum. The cells were seeded in a 96 well plate as 50,000 cells/well, the test compound was added at a desired concentration, and the plate was allowed to stand in an incubator containing 5% CO2 at .37° C. for 15 minutes. LPS was added thereafter at a final concentration of 5 μg/mL, and the plate was allowed to stand in the incubator for 21 hours.
The culture medium containing produced TNF-α was retrieved, and the amount of TNF-α was measured according to the protocol attached to mouse TNF-α ELISA kit (manufactured by R & D Systems Co.). […] The suppression action of TNF-α was expressed-by […] (nM). Ex. No. in Table 9 denotes the example No.

[2] = test system: TNF-α production induced by LPS; test: Inhibitory action of TNF-α production (in vivo) induced by LPS using mouse; settings: C3H/He mouse; orally administered 60 minutes before LPS 10 μg intraperitoneally; plasma TNF-α 90 minutes after LPS; read-out: ED50 (mg/kg), suppression action of TNF-α production
Protocol: C3H/He mouse (manufactured by Japan SLC Co., male) was used as a test animal. A desired concentration of the test sample was suspended in 0.5% methyl cellulose solution. The weight of the mouse was measured, and the test compound solution was orally administered at a dosage of 10 mL/kg while only 0.5% methyl cellulose was administered to the reference group. One group contained 5 to 7 mice. LPS was dissolved in physiological saline, and 10 μg was intraperitoneally administered to each mouse. The test compound was administered first, then LPS was administered 60 minutes thereafter. After 90 minutes, the blood was sampled from the large abdominal vein with the heparin, and a plasma was obtained by centrifugation. The content of TNF-α in the plasma was measured according to the protocol attached to TNF-α ELISA kit (manufactured by R & D System Co.). […] The suppression action of TNF-α production was represented by ED50 (mg/kg). Ex. No. in Table 11 denotes the example No.

PDE4 = test system: T1, PDE4; test: Inhibitory action of PDE4 enzyme activity (PDE4 purified from U937 cells); type: biochemical; settings: PDE4 fraction purified from U937 cells; [3H]-cAMP substrate; 30° C., 10 minutes
T1 construct: The PDE4 enzyme was purified from U937 cells that are the cells derived from lymphoma
Protocol: (1) Purification of PDE4 from U937 Cells
The PDE4 enzyme was purified from U937 cells that are the cells derived from lymphoma. U937 cells were suspended in buffer solution A (20 mM Tris-HCl(pH 6.5), 1 mM MgCl2, 0.1 mM EGTA, 3 mM 2-mercaptoethanol) containing protease. inhibitor cocktail (manufactured by Sigma Co.), and a soluble fraction was obtained by centrifugation after ultrasonic disintegration (100,000 G, 30 minutes, 4° C.). […] Each fraction was tested for the cAMP metabolized PDE activity to identify the fractions containing PDE4 enzyme.
(2) Measurement of Inhibitory Activity of PDE4 Enzyme Activity
A desired concentration of the test compound was allowed to react in a reaction mixture (100 μL; 40 mM Tris-HCl (pH 7.4), 5 MM MgCl2, 4 mM 2-mercaptoethanol, […] cAMP, 0.83 μCi [^3H]-cAMP and PDE4 fraction) at 30° C. for 10 minutes. The enzyme reaction was stopped by adding 25 μL of trichloroacetic acid to the reaction mixture. The reaction solution was charged on a neutral alumina column equilibrated with 0.1 M of 2-[[tris(hydroxylmethyl)methyl]-amino]-1-ethanesulfonic acid (TES) buffer (pH 8.0) and, after washing the column with a sufficient amount of 0.1 M TES buffer solution, the column was eluted with 2N NaOH. A 500 μL aliquot of the eluate containing [^3H]-5′AMP product was filled in a scintillation vial containing the scintillation cocktail (5 ml, manufactured by Perkin Elmer Co.) to measure radioactivity. […] The inhibitory action of PDE4 enzyme activity was expressed by IC50 (nM). Ex. No. in Table 8 denotes the example No.

SMILES	IC50 [1] [nM]	IC50 (PDE4) [nM]	ED50 [2] [mg/kg]
CCc1c(C)nc(-c2cc(C)c(I)s2)nc1Nc1ccc(CC(=O)O)cc1 [Example 292]			25
Cc1nc(-c2ccc(Cl)s2)nc(Nc2ccc(CC(=O)O)cc2)c1CO [Example 386]			50
CCc1c(C)nc(-c2ccoc2)nc1Nc1ccc(C(=O)O)cc1 [Example 24]	865	3250	
CCc1c(C)nc(-c2cccs2)nc1Nc1ccc(C(=O)O)cc1 [Example 5]	265	1390	
CCc1c(C)nc(-c2ccc(F)s2)nc1Nc1ccc(CC(=O)O)cc1 [Example 373]			19
CCc1nc(-c2cc(C)c(Br)s2)nc(Nc2ccc(CC(=O)O)cc2)c1CC [Example 239]			22
CCc1c(C)nc(-c2ccsc2)nc1Nc1ccc2cc(C(=O)O)ccc2c1 [Example 20]	289	191	
CCc1c(C)nc(-c2ccc(I)s2)nc1Nc1ccc(CC(=O)O)cc1F [Example 345]			37
C=CCc1c(C)nc(-c2cccs2)nc1Nc1ccc2cc(C(=O)O)ccc2c1 [Example 3]	1900	356	
CCc1c(C)nc(-c2ccsc2)nc1Nc1ccc(C(=O)O)cc1 [Example 18]	202	1680	37
CCc1c(C)nc(-c2cccs2)nc1Nc1ccc(CC(=O)O)cc1F [Example 344]			27
C=CCc1c(CC)nc(-c2ccoc2)nc1Nc1ccc(C(=O)O)cc1 [Example 103]			37
CCc1nc(-c2cc(C)c(I)s2)nc(Nc2ccc(CC(=O)O)cc2)c1CC [Example 293]			18
CCc1c(C)nc(-c2ccc(F)s2)nc1Nc1ccc(CC(=O)O)cc1F [Example 376]			12
C=CCc1c(C)nc(-c2ccoc2)nc1Nc1ccc2cc(C(=O)O)ccc2c1 [Example 23]	2110	633	
C=CCc1c(C)nc(-c2ccc(Br)s2)nc1Nc1ccc(CC(=O)O)cc1 [Example 241]			39
C=CCc1c(C)nc(-c2ccc(Cl)s2)nc1Nc1ccc(CC(=O)O)cc1 [Example 254]			38
CCc1nc(-c2ccc(C)s2)nc(Nc2ccc(CC(=O)O)cc2)c1CC [Example 110]			31
CCc1c(C)nc(-c2cccs2)nc1Nc1ccc(CC(=O)O)cc1 [Example 6]	4930	2940	
CCc1c(C)nc(-c2cccs2)nc1Nc1ccc2cc(C(=O)O)ccc2c1 [Example 7]	267	409	
CCc1nc(-c2cc(C)c(Br)s2)nc(Nc2ccc(C(=O)O)cc2)c1CC [Example 238]			20
C=CCc1c(C)nc(-c2ccsc2)nc1Nc1ccc(C(=O)O)cc1 [Example 11]	790	1170	26
CCc1nc(-c2ccc(SC)s2)nc(Nc2ccc(CC(=O)O)cc2)c1CC [Example 128]			24
CCc1nc(-c2ccc(Cl)s2)nc(Nc2ccc(CC(=O)O)cc2)c1CC [Example 289]			18
CCc1c(C)nc(-c2ccc(C)s2)nc1Nc1ccc(CC(=O)O)cc1 [Example 205]			21
C=CCc1c(C)nc(-c2cc(C)c(Br)s2)nc1Nc1ccc(CC(=O)O)cc1 [Example 274]			25

More lines, main results first:

IC50 [1] [nM]	IC50 (PDE4) [nM]	SMILES	ED50 [2] [mg/kg]
34		CCc1c(C)nc(-c2cccs2)nc1Nc1ccc(CC(=O)Nc2ccccc2OC)cc1 [Example 113]	
48		CCc1nc(-c2ccc(Cc3ccccc3)s2)nc(Nc2ccc3cc(C(=O)O)ccc3c2)c1CC [Example 234]	
53		CCc1nc(-c2ccc(Br)s2)nc(Nc2ccc(CC(=O)O)cc2)c1CC [Example 221]	24
29	76	CCc1nc(-c2cccs2)nc(Nc2ccc3cc(C(=O)O)ccc3c2)c1CC [Example 85]	
39	70	CCc1c(C)nc(-c2cc(Br)cs2)nc1Nc1ccc(CC(=O)NO)cc1 [Example 193]	
	845	CCc1nc(-c2cc(C)c(C)s2)nc(Nc2ccc3cc(C(=O)O)ccc3c2)c1CC [Example 155]	
57	90	CCc1nc(-c2ccc(OC)s2)nc(Nc2ccc3cc(C(=O)O)ccc3c2)c1CC [Example 82]	
58		CCc1nc(-c2ccc(C)s2)nc(Nc2ccc3cc(C(=O)O)ccc3c2)c1CC [Example 111]	15
211		CCCc1nc(-c2ccsc2)nc(Nc2ccc3cc(C(=O)O)ccc3c2)c1CC [Example 73]	
219	312	CCc1c(C)nc(-c2ccoc2)nc1Nc1ccc2cc(C(=O)O)ccc2c1 [Example 26]	
57		CCc1c(C)nc(-c2ccc(Br)s2)nc1Nc1ccc(CC(N)=O)cc1 [Example 181]	
44	90	C=CCc1c(CC)nc(-c2ccco2)nc1Nc1ccc2cc(C(=O)O)ccc2c1 [Example 191]	
59		CCc1nc(-c2ccc(Br)s2)nc(Nc2ccc(C(=O)O)cc2)c1CC [Example 220]	41
80		CCc1nc(-c2cc(C)c(C)o2)nc(Nc2ccc3cc(C(=O)O)ccc3c2)c1CC [Example 157]	
	116	C=CCc1c(CC)nc(-c2ccoc2)nc1Nc1ccc2cc(C(=O)O)ccc2c1 [Example 105]	
239		C=CCc1c(CC)nc(-c2ccc(OC)s2)nc1Nc1ccc(C(=O)O)cc1 [Example 54]	

IC50 [1] [nM]	IC50 (PDE4) [nM]	SMILES	ED50 [2] [mg/kg]
46	59	CCc1nc(-c2ccco2)nc(Nc2ccc3cc(C(=O)O)ccc3c2)c1CC [Example 188]	
	105	CCc1ccc(-c2nc(CC)c(CC)c(Nc3ccc4cc(C(=O)O)ccc4c3)n2)s1 [Example 198]	
80		CCc1nc(-c2ccco2)nc(Nc2ccc(C(=O)O)cc2)c1CC [Example 186]	
67		CCc1nc(-c2ccoc2)nc(Nc2ccc(C(=O)O)cc2)c1CC [Example 86]	8
	133	C=CCc1c(CC)nc(-c2ccc(CC)s2)nc1Nc1ccc2cc(C(=O)O)ccc2c1 [Example 201]	
86		CCc1c(C)nc(-c2ccc(OC)s2)nc1Nc1ccc(CC(=O)NO)cc1 [Example 203]	
	156	C=CCc1c(CC)nc(-c2cc(OC)cs2)nc1Nc1ccc2cc(C(=O)O)ccc2c1 [Example 185]	
504		CCc1c(C)nc(-c2ccc(Cl)s2)nc1Nc1ccc(CC(=O)O)cc1 [Example 253]	14
249		CCc1c(C)nc(-c2ccc(C(=O)OC)s2)nc1Nc1ccc(C(=O)O)cc1 [Example 50]	
73		CCc1nc(-c2ccc(OC)s2)nc(Nc2ccc(C(=O)O)cc2)c1CC [Example 80]	
	192	C=CCc1c(CC)nc(-c2ccc(C)s2)nc1Nc1ccc2cc(C(=O)O)ccc2c1 [Example 209]	
10		CCc1c(C)nc(-c2cccs2)nc1Nc1ccc(CC(=O)NO)cc1 [Example 116]	12
85		CCc1nc(-c2ccc(SC)s2)nc(Nc2ccc3cc(C(=O)O)ccc3c2)c1CC [Example 129]	
247		C=CCc1c(CCC)nc(-c2ccsc2)nc1Nc1ccc(C(=O)O)cc1 [Example 68]	
	89	CCc1c(C)nc(-c2ccc(Br)s2)nc1Nc1ccc(CC(=O)NO)cc1 [Example 192]	
	117	CCc1c(C)nc(-c2ccc(SC)s2)nc1Nc1ccc2cc(C(=O)O)ccc2c1 [Example 79]	
